Data taken from PubChem BioAssay AID248 (DTP/NCI, 2004).
Several values for one entry are separate records, joined by “and”; a condition that tells them apart may be missing. Equal entries are not always repeated. Inconclusive results and toxic doses are left out. Cut-off read from the data, not from the text of the source: active = T/C of 150% or more; inactive = T/C below 125%.

Tested on: L1210 leukemia ip in BDF1 mice, survival T/C
Experiment: NCI In Vivo Anticancer Drug Screen. Data for tumor model L1210 Leukemia (intraperitoneal) in B6D2F1 (BDF1) mice
Settings: endpoint: mean survival time, higher = longer survival
Outline: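 Read-out is survival time, reported as the treated-group measurement over the vehicle-control measurement.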

[1] = dose: 100.0 mg/kg/injection, schedule: Q01DX009 (ip), vehicle: Klucel (hydroxypropylcellulose) (HPC)
[2] = dose: 200.0 mg/kg/injection, schedule: Q01DX009 (ip), vehicle: Klucel (hydroxypropylcellulose) (HPC)
[3] = dose: 100.0 mg/kg/injection, schedule: Q01DX001 (ip), vehicle: saline
[4] = dose: 200.0 mg/kg/injection, schedule: Q01DX001 (ip), vehicle: saline
[5] = dose: 100.0 mg/kg/injection, schedule: Q01DX009 (ip), vehicle: saline with Tween-80
[6] = dose: 200.0 mg/kg/injection, schedule: Q01DX009 (ip), vehicle: saline with Tween-80
[7] = dose: 400.0 mg/kg/injection, schedule: Q01DX009 (ip), vehicle: saline with Tween-80
[8] = dose: 400.0 mg/kg/injection, schedule: Q01DX001 (ip), vehicle: saline
[9] = dose: 50.0 mg/kg/injection, schedule: Q01DX009 (ip), vehicle: saline with Tween-80
[10] = dose: 100.0 mg/kg/injection, schedule: Q04DX003 (ip), vehicle: saline with Tween-80
[11] = dose: 200.0 mg/kg/injection, schedule: Q04DX003 (ip), vehicle: saline with Tween-80
[12] = dose: 400.0 mg/kg/injection, schedule: Q04DX003 (ip), vehicle: saline with Tween-80
[13] = dose: 100.0 mg/kg/injection, schedule: Q04DX003 (ip), vehicle: Klucel (hydroxypropylcellulose) (HPC)
[14] = dose: 200.0 mg/kg/injection, schedule: Q04DX003 (ip), vehicle: Klucel (hydroxypropylcellulose) (HPC)
[15] = dose: 400.0 mg/kg/injection, schedule: Q04DX003 (ip), vehicle: Klucel (hydroxypropylcellulose) (HPC)
[16] = dose: 25.0 mg/kg/injection, schedule: Q01DX009 (ip), vehicle: saline with Tween-80
[17] = dose: 25.0 mg/kg/injection, schedule: Q04DX003 (ip), vehicle: saline with Tween-80

Measured: T/C

CC1([CH2][Hg][I])COCC([CH2][Hg][I])O1 (centres undefined)
inactive: dose: 0.78 mg/kg/injection, schedule: Q01DX001 (ip), vehicle: acetone 105 % of control | dose: 0.78 mg/kg/injection, schedule: Q04DX003 (ip), vehicle: saline 98 % of control | dose: 1.56 mg/kg/injection, schedule: Q01DX001 (ip), vehicle: acetone 94 % of control | dose: 1.56 mg/kg/injection, schedule: Q04DX003 (ip), vehicle: saline 96 % of control | dose: 3.12 mg/kg/injection, schedule: Q01DX001 (ip), vehicle: acetone 94 % of control | dose: 3.12 mg/kg/injection, schedule: Q04DX003 (ip), vehicle: saline 98 % of control | dose: 4.6 mg/kg/injection, schedule: Q04DX003 (ip), vehicle: acetone 93 % of control | dose: 5.75 mg/kg/injection, schedule: Q01DX009 (ip), vehicle: acetone 107 % of control | dose: 7.0 mg/kg/injection, schedule: Q04DX003 (ip), vehicle: acetone 96 % of control | dose: 10.5 mg/kg/injection, schedule: Q04DX003 (ip), vehicle: acetone 95 % of control | dose: 11.5 mg/kg/injection, schedule: Q01DX009 (ip), vehicle: acetone 107 % of control | dose: 15.0 mg/kg/injection, schedule: Q04DX003 (ip), vehicle: saline 110 % of control | dose: 23.0 mg/kg/injection, schedule: Q01DX009 (ip), vehicle: acetone 111 % of control | dose: 23.0 mg/kg/injection, schedule: Q04DX003 (ip), vehicle: saline 110 % of control

COc1cc([N+](=O)[O-])ccc1NC(=O)Oc1ccc2ccccc2c1
inactive: [1] 98 % of control | [2] 96 % of control | dose: 400.0 mg/kg/injection, schedule: Q01DX009 (ip), vehicle: Klucel (hydroxypropylcellulose) (HPC) 100 % of control

NC(=O)c1cc(Cl)cc(N)c1Cl
inactive: dose: 100.0 mg/kg/injection, schedule: Q01DX001 (ip), vehicle: saline with Tween-80 107 % of control | dose: 200.0 mg/kg/injection, schedule: Q01DX001 (ip), vehicle: saline with Tween-80 104 % of control | dose: 400.0 mg/kg/injection, schedule: Q01DX001 (ip), vehicle: saline with Tween-80 117 % of control

CSc1nc(N)nc2c1nnn2C1OC(CO)C(O)C1O (centres undefined)
inactive: [3] 105 % of control | [4] 105 % of control

OCc1ccc(Cl)cc1
inactive: [5] 102 % of control | [6] 98 % of control | [7] 96 % of control

Clc1ccc(Cl)c(SSc2cc(Cl)ccc2Cl)c1
inactive: [3] 101 % of control | [4] 98 % of control | [8] 89 % of control

O=C(/C=C/C=C/c1ccccc1)c1ccccc1O
inactive: [9] 91 % of control | [5] 87 % of control and 89 % of control | [10] 94 % of control | [6] 94 % of control | [11] 91 % of control | [7] 89 % of control | [12] 93 % of control

CCCCNC(C)(C)C1(c2ccc(Cl)cc2)SSC(c2ccc(Cl)cc2)(C(C)(C)NCCCC)SS1 (centres undefined)
inactive: [1] 99 % of control | [13] 93 % of control | [2] 99 % of control | [14] 101 % of control | [15] 97 % of control

NC(=O)OCC1OC(n2ccc(=O)[nH]c2=O)C(O)C1O (centres undefined)
inactive: dose: 100.0 mg/kg/injection, schedule: Q01DX005 (ip), vehicle: saline 105 % of control

CN(C)CCCC1(C#N)c2ccccc2CCc2ccccc21
inactive: dose: 6.25 mg/kg/injection, schedule: Q01DX009 (ip), vehicle: saline 102 % of control | dose: 12.5 mg/kg/injection, schedule: Q01DX009 (ip), vehicle: saline 105 % of control | dose: 25.0 mg/kg/injection, schedule: Q01DX009 (ip), vehicle: saline 103 % of control | dose: 25.0 mg/kg/injection, schedule: Q04DX003 (ip), vehicle: saline 100 % of control | dose: 50.0 mg/kg/injection, schedule: Q01DX009 (ip), vehicle: saline 113 % of control | dose: 50.0 mg/kg/injection, schedule: Q04DX003 (ip), vehicle: saline 100 % of control | dose: 100.0 mg/kg/injection, schedule: Q04DX003 (ip), vehicle: saline 102 % of control

CC(C)C1CCC(NC(=O)NCCF)CC1 (centres undefined)
inactive: dose: 9.5 mg/kg/injection, schedule: Q01DX001 (ip), vehicle: other 105 % of control | dose: 19.0 mg/kg/injection, schedule: Q01DX001 (ip), vehicle: other 100 % of control | dose: 38.0 mg/kg/injection, schedule: Q01DX001 (ip), vehicle: other 102 % of control

CCCCCCCCCCCCCCCC(=O)N(CCCN)C(C)CCCN(CC)CC (centres undefined)
inactive: [16] 93 % of control | [9] 86 % of control | [5] 102 % of control | [10] 97 % of control | [11] 103 % of control | [12] 100 % of control

CC(C)=CCC/C(C)=C/COC(=O)C(CC=C(C)C)CCN1CCN(C)CC1 (centres undefined)
inactive: [13] 104 % of control | [14] 93 % of control | [15] 104 % of control

CC(=O)OC1=C(Cl)C(=O)c2ccccc2C1=O
inactive: dose: 75.0 mg/kg/injection, schedule: Q01DX001 (ip), vehicle: other 89 % of control | dose: 150.0 mg/kg/injection, schedule: Q01DX001 (ip), vehicle: other 94 % of control

COCc1ccc([N+](=O)[O-])o1
inactive: [3] 101 % of control | [4] 103 % of control | [8] 101 % of control

NC(=O)Cc1csc2ccccc12
inactive: [3] 101 % of control | [4] 106 % of control

C(=C(/c1ccccc1)N1CCOCC1)/c1ccccc1
inactive: dose: 100.0 mg/kg/injection, schedule: Q04DX002 (sc), vehicle: olive oil, sesame oil, peanut oil 118 % of control | dose: 200.0 mg/kg/injection, schedule: Q04DX002 (sc), vehicle: olive oil, sesame oil, peanut oil 99 % of control | dose: 400.0 mg/kg/injection, schedule: Q04DX002 (sc), vehicle: olive oil, sesame oil, peanut oil 99 % of control

CN(C)CCCN=Cc1cc(Cl)ccc1O.CN(C)CCCN=Cc1cc(Cl)ccc1O.[Ni+2]
inactive: dose: 6.25 mg/kg/injection, schedule: Q04DX003 (ip), vehicle: saline with Tween-80 92 % of control | dose: 12.5 mg/kg/injection, schedule: Q04DX003 (ip), vehicle: saline with Tween-80 105 % of control | [17] 97 % of control

CNC(C)(C)C(SS)c1ccc(Cl)cc1 (centres undefined)
inactive: [16] 92 % of control | [17] 102 % of control | [9] 98 % of control | dose: 50.0 mg/kg/injection, schedule: Q04DX003 (ip), vehicle: saline with Tween-80 96 % of control | dose: 75.0 mg/kg/injection, schedule: Q01DX009 (ip), vehicle: saline with Tween-80 94 % of control | [10] 98 % of control

CNC(=O)O/N=C/c1ccc([N+](=O)[O-])cc1
inactive: dose: 75.0 mg/kg/injection, schedule: Q01DX001 (ip), vehicle: saline 94 % of control | dose: 150.0 mg/kg/injection, schedule: Q01DX001 (ip), vehicle: saline 100 % of control

CC1(C)CCCC2(C)C(O)C3CCC2C31 (centres undefined)
inactive: dose: 100.0 mg/kg/injection, schedule: Q01DX001 (ip), vehicle: Klucel (hydroxypropylcellulose) (HPC) 96 % of control | dose: 200.0 mg/kg/injection, schedule: Q01DX001 (ip), vehicle: Klucel (hydroxypropylcellulose) (HPC) 91 % of control | dose: 400.0 mg/kg/injection, schedule: Q01DX001 (ip), vehicle: Klucel (hydroxypropylcellulose) (HPC) 90 % of control
